Test results published in US20120214834A1, “IMMUNE ENHANCEMENT COMPOSITION AND KIT AND USE THEREOF” (priority 2011, published 2012).

System: Human erythromyeloblastoid leukemia cell line K562 (target cells of NK cells)
Assay: Activity of NK cells against pre-treated K562 target cells, by flow cytometer (PKH67-GL / PI)
Format: cell-based
Settings: K562 target cells treated with 10 nM rapamycin alone for 48 hours; effector:target 25:1, 16 hours co-culture
Procedure: Select Human erythromyeloblastoid leukemia cell line K562 as target cells and culture it by tissue culture technique in RPMI 1640 supplemented with 10% FBS to a proper amount. And then, take a suspension containing 1×10^6 cells and inoculate it in a 6-wells plate. […] And then, put the plate into a 37° C. incubator to continue culturing for 48 hours.
Use 1 mM of green fluorescent cell linker dye PKH67-GL(Sigma-Aldrich), which resolves in alcohol, to label the aforementioned cells. The detail steps are: resuspend 1×10^6 cells in 1 ml of Diluent C(Sigma-Aldrich), add PKH67-GL until the density reaches 4×10^−6 M and dye for 4 minutes under 25 °C. Add 1 ml FBS and 2 ml complete medium to end the coloring reaction, then wash it with PBS for three times. And then, dilute the amount of cells in a complete medium until it reaches 2.5×10^5 cells per ml and confirm the labeling and activity of cells by a Flow cytometer.
Dilute the amount of NK cells (the effector cell of the present Experimental Example) to 6.25×10^6 per ml. Mix 100 μl of the aforementioned diluted cell solution with 100 μl of the target cell solution so that the ratio of effector cells and target cells reaches 25:1. Put the mixed cells in a cell culture and culture for 16 hours in a 37□ incubator with 5% CO2. […]

Compound: CO[C@H]1C[C@@H]2CC[C@@H](C)[C@@](O)(O2)C(=O)C(=O)N2CCCC[C@H]2C(=O)O[C@H]([C@H](C)C[C@@H]2CC[C@@H](O)[C@H](OC)C2)CC(=O)[C@H](C)/C=C(\C)[C@@H](O)[C@@H](OC)C(=O)[C@H](C)C[C@H](C)/C=C/C=C/C=C/1C [rapamycin]
- activity ratio of NK cells, increase over Control: 15%
